Legend:
[1] = molecular target: Tyrosine-protein kinase Fyn (Homo sapiens, UniProt P06241); experiment: (§1) Radioisotope Filter Binding Assay: IC50 Table 13-20: The protocol calls for test compound of the invention to be incubated with kinase, substrate, cofactors, and radio-isotope-labeled ATP (33P-gamma-ATP). The reaction mixtures are then spotted onto filter papers which bind the radioisotope labeled catalytic product. Unreacted phosphate is removed via washing. The reagents used include base reaction buffer; 20 mM Hepes (pH 7.5), 10 mM MgCl2, 1 mM EGTA, 0.02% Brij35, 0.02 mg/ml BSA, 0.1 mM Na3VO4, 2 mM DTT, 1% DMSO. The reaction procedure include the following steps: (1) prepare indicated substrate in freshly prepared base reaction buffer, (2) deliver any required cofactors to the substrate solution above, (3) deliver indicated kinase into the substrate solution and gently mix, (4) deliver compounds in DMSO into the kinase reaction mixture by Acoustic technology (Echo550; nanoliter range), incubate for 20 minutes at room temperature, (5) deliver 33P-ATP (specific activity 10 μCi/μL) into the reaction mixture to initiate the reaction, (6) incubate kinase reaction for 2 hours at room temperature, (7) reactions are spotted onto P81 ion exchange paper, (8) detect kinase activity by filter-binding method.
[2] = molecular target: T1, Phosphatidylinositol 4,5-bisphosphate 3-kinase catalytic subunit delta isoform (Homo sapiens, UniProt O00329); experiment: as §1
T1 sequence (O00329 whole entry): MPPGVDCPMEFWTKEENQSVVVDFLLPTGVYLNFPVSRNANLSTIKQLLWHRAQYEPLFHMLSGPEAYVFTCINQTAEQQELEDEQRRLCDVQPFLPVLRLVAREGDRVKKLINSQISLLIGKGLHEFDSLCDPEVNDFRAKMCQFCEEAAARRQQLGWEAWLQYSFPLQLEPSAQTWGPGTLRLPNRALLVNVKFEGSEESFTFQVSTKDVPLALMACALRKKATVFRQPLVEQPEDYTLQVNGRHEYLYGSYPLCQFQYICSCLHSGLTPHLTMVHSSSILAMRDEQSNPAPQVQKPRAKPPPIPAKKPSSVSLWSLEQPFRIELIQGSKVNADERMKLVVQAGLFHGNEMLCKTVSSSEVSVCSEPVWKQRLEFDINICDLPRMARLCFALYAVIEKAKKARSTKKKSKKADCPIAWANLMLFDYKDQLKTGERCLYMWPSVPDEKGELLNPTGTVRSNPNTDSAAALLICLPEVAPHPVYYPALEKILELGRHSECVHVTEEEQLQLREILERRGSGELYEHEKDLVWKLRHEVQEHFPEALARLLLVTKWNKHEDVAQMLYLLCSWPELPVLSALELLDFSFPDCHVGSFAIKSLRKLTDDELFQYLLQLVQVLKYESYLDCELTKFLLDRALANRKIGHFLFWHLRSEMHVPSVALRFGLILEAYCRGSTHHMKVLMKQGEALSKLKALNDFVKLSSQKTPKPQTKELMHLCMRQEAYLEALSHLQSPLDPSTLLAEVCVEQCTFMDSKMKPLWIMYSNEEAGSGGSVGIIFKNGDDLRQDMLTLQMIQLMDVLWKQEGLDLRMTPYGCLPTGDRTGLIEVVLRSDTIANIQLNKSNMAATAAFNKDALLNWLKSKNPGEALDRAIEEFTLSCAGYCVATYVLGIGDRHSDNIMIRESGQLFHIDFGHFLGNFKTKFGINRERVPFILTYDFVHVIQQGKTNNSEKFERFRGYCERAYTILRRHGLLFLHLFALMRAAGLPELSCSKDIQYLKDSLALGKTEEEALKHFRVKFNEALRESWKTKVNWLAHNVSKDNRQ

Chain of Tyrosine-protein kinase Fyn (P06241 whole entry): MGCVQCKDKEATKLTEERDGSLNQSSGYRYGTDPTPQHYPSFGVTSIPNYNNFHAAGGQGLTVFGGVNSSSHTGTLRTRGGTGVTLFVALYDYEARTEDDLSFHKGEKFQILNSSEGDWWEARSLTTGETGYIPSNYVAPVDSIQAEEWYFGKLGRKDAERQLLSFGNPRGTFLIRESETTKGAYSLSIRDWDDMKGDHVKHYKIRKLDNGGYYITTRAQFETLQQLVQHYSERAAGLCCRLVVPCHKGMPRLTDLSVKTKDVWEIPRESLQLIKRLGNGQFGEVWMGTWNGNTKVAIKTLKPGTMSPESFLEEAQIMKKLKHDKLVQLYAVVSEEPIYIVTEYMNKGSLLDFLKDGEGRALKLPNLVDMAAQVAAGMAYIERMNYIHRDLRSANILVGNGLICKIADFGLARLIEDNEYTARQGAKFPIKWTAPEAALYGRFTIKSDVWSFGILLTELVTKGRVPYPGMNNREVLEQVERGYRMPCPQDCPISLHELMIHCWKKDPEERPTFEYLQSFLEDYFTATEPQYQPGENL

Row | Structure (SMILES) | IC50 [1] [nM] | IC50 [2] [nM]
1 | Nc1ncnc2c1c(-c1ccc(Oc3ccccc3)c(F)c1)nn2CC1SSCC1OC(=O)c1ccccc1 (configuration not stated) | 750 | –
2 | Nc1nc2cc(-c3nn(C[C@@H]4SSC[C@H]4OC(=O)c4ccccc4)c4ncnc(N)c34)ccc2o1 (relative stereo) | – | 750
